Earlier results on 1 substance are cited in US20160128970A1, “COMPOSITION AND METHOD FOR TREATING NOSEBLEEDS” (BINYARCO, LLC, priority 2005, published 2016).

Turning to bismuth subgallate, the solubility in water result is “insoluble in water”.
